Patent US20230041138A1, “TREATMENT OF HIS HYPORESPONDERS” (NewAmsterdam Pharma B.V. (Dutch Registration No. 55971946), priority 2021, published 2023)

Assay: Phase 2 study of obicetrapib as adjunct to high-intensity statin therapy: safety and tolerability (adverse events)
Assay type: in vivo, human
Conditions: for AEs, total: subjects, number (%): on top of high-intensity statin; for Subjects reporting treatment-emergent adverse events: safety population
Method: Patients were randomly assigned to receive one of the three treatments investigative treatments. All treatments were to be taken once daily with food for 8 weeks. Safety was assessed throughout the trial by monitoring adverse events and concomitant medication use, 12-lead electrocardiograms (ECGs), vital signs, laboratory safety assessments and physical examinations. Additional assessments included salivary cortisol, plasma aldosterone, high-sensitivity C-reactive protein (hsCRP) and endothelin 1.
Safety and tolerability profiles of obicetrapib assessed by clinical laboratory values and incidence of adverse events (AEs).
The primary outcome measure was LDL-C (percent change). Secondary outcome measures included ApoB, Non-HDL-C and HDL-C (percent change). The Intent-to-Treat (ITT) Population included all participants randomized into the study. The Modified ITT (mITT) Population included all participants in the ITT Population who receive at least 1 dose of any study drug and have a baseline value for the LDL-C assessment. The Safety Population included all participants who receive at least 1 dose of any study drug. The mITT Population was the primary population for the efficacy analyses. The primary efficacy analysis of the percent change in LDL-C was performed using a mixed model for repeated measures (MMRM) approach. In order to maintain the overall Type I error rate, the secondary efficacy endpoints were tested sequentially at the 0.05 significance level according to the pre-specified order of hierarchy. All safety endpoints were summarized descriptively. No statistical inference was applied to the safety endpoints. Plasma obicetrapib concentrations were summarized with descriptive statistics based on the […].

[1] = either obicetrapib treatment group (5 mg, 10 mg)

For CCOC(=O)N1c2ccc(C(F)(F)F)cc2[C@@H](N(Cc2cc(C(F)(F)F)cc(C(F)(F)F)c2)c2ncc(OCCCC(=O)O)cn2)C[C@H]1CC [Obicetrapib, (2R,4S)-4-{[3,5-bis(trifluoromethyl)benzyl]-[5-(3-carboxypropoxy)pyrimidin-2-yl]amino}-2-ethyl-6-trifluoromethyl-3,4-dihydro-2H-quinoline-1-carboxylic acid ethyl ester], the “Tolerability and safety profile” value (5 mg and 10 mg on top of high intensity statin therapy) was “well tolerated with a safety profile similar to placebo”, the “Subjects reporting events considered study drug related” value (5 mg group) was 2 subjects and the “AEs, related: number of events” value (5 mg group (N = 40)) was 2 events. The “AEs, related: subjects, number (%)” value (5 mg group (N = 40)) was 2 (5.0), the “AEs, severe” value (5 mg group (N = 40)) was 0 and the “AEs, total: number of events” value (5 mg group (N = 40)) was 24 events. The Deaths (5 mg group (N = 40)) was 0, the “SAEs, related” value (5 mg group (N = 40)) was 0 and the “SAEs, total” value (5 mg group (N = 40)) was 0. The “TEAEs leading to discontinuation of study drug” value (5 mg group (N = 40)) was 0, the “TESAEs leading to discontinuation of study” value (5 mg group (N = 40)) was 0 and the “AEs, total: subjects, number (%)” value (5 mg group (N = 40)) was 13 (32.5). The “Adverse events: Basal cell carcinoma” value (5 mg group (n = 40)) was 0 (0.0) n (%), the “Adverse events: Fatigue” value (5 mg group (n = 40)) was 2 (5.0) n (%) and the “Adverse events: Gastrointestinal disorders” value (5 mg group (n = 40)) was 3 (7.5) n (%). The “Adverse events: General disorders and administration site conditions” value (5 mg group (n = 40)) was 3 (7.5) n (%), the “Adverse events: Hypertension” value (5 mg group (n = 40)) was 2 (5.0) n (%) and the “Adverse events: Infections and infestations” value (5 mg group (n = 40)) was 1 (2.5) n (%). For the same compound, the “Adverse events: Injury, poisoning and procedural complications” value (5 mg group (n = 40)) was 3 (7.5) n (%), the “Adverse events: Investigations” value (5 mg group (n = 40)) was 2 (5.0) n (%) and the “Adverse events: Metabolism and nutrition disorders” value (5 mg group (n = 40)) was 2 (5.0) n (%). For the same compound, the “Adverse events: Muscle spasms” value (5 mg group (n = 40)) was 0 (0.0) n (%), the “Adverse events: Musculoskeletal and connective tissue disorders” value (5 mg group (n = 40)) was 4 (10.0) n (%) and the “Adverse events: Nausea” value (5 mg group (n = 40)) was 1 (2.5) n (%). The “Adverse events: Neoplasms benign, malignant and unspecified (including cysts and polyps)” value (5 mg group (n = 40)) was 0 (0.0) n (%), the “Adverse events: Nervous system disorders” value (5 mg group (n = 40)) was 2 (5.0) n (%) and the “Adverse events: Respiratory, thoracic and mediastinal disorders” value (5 mg group (n = 40)) was 2 (5.0) n (%). The “Adverse events: Type 2 diabetes mellitus” value (5 mg group (n = 40)) was 2 (5.0) n (%), the “Adverse events: Vascular disorders” value (5 mg group (n = 40)) was 2 (5.0) n (%) and the “Subjects reporting treatment-emergent adverse events” value (5 mg group) was 15 subjects. For the same compound, the “Subjects reporting events considered study drug related” value (10 mg group) was 1 subject, the “AEs, related: number of events” value (10 mg group (N = 40)) was 1 events and the “AEs, related: subjects, number (%)” value (10 mg group (N = 40)) was 1 (2.5). For the same compound, the “AEs, severe” value (10 mg group (N = 40)) was 0, the “AEs, total: number of events” value (10 mg group (N = 40)) was 11 events and the Deaths (10 mg group (N = 40)) was 0. For the same compound, the “SAEs, related” value (10 mg group (N = 40)) was 0, the “SAEs, total” value (10 mg group (N = 40)) was 0 and the “TEAEs leading to discontinuation of study drug” value (10 mg group (N = 40)) was 0. For the same compound, the “TESAEs leading to discontinuation of study” value (10 mg group (N = 40)) was 0, the “AEs, total: subjects, number (%)” value (10 mg group (N = 40)) was 8 (20.0) and the “Adverse events: Basal cell carcinoma” value (10 mg group (n = 40)) was 0 (0.0) n (%). The “Adverse events: Fatigue” value (10 mg group (n = 40)) was 1 (2.5) n (%), the “Adverse events: Gastrointestinal disorders” value (10 mg group (n = 40)) was 0 (0.0) n (%) and the “Adverse events: General disorders and administration site conditions” value (10 mg group (n = 40)) was 2 (5.0) n (%). For the same compound, the “Adverse events: Hypertension” value (10 mg group (n = 40)) was 0 (0.0) n (%), the “Adverse events: Infections and infestations” value (10 mg group (n = 40)) was 0 (0.0) n (%) and the “Adverse events: Injury, poisoning and procedural complications” value (10 mg group (n = 40)) was 1 (2.5) n (%). For the same compound, the “Adverse events: Investigations” value (10 mg group (n = 40)) was 0 (0.0) n (%), the “Adverse events: Metabolism and nutrition disorders” value (10 mg group (n = 40)) was 0 (0.0) n (%) and the “Adverse events: Muscle spasms” value (10 mg group (n = 40)) was 0 (0.0) n (%). The “Adverse events: Musculoskeletal and connective tissue disorders” value (10 mg group (n = 40)) was 4 (10.0) n (%), the “Adverse events: Nausea” value (10 mg group (n = 40)) was 0 (0.0) n (%) and the “Adverse events: Neoplasms benign, malignant and unspecified (including cysts and polyps)” value (10 mg group (n = 40)) was 0 (0.0) n (%). For the same compound, the “Adverse events: Nervous system disorders” value (10 mg group (n = 40)) was 2 (5.0) n (%), the “Adverse events: Respiratory, thoracic and mediastinal disorders” value (10 mg group (n = 40)) was 0 (0.0) n (%) and the “Adverse events: Type 2 diabetes mellitus” value (10 mg group (n = 40)) was 0 (0.0) n (%). The “Adverse events: Vascular disorders” value (10 mg group (n = 40)) was 0 (0.0) n (%), the “Subjects reporting treatment-emergent adverse events” value (10 mg group) was 8 subjects and the “Laboratory parameters (chemistry, hematology, urinalysis) compared with placebo” value [1] was “no clinically meaningful shifts in chemistry, hematology or urinalysis parameters”. The “Vital signs compared with placebo” value [1] was “no changes in vital signs”.
